The target in data set [1] is T1, KIT D816V (HMC1.2 cells, KIT V560G and D816V) (Homo sapiens, UniProt P10721, D816V/V560G).
T1 construct: endogenous in cells; host or cells: HMC1.2 (mast cell leukemia cell line)
Put plainly: HMC1.2 autophosphorylation assay (phospho-Y719 KIT AlphaLISA). The format is cell-based. The settings on record: 90 minutes, KIT autophosphorylation at tyrosine 719, read-out: KIT (P-KIT HMC1.2 (nM)). How it is done: 10,000 HMC1.2 cells were incubated in 22 μL culture media (phenol-red free IMDM, no serum) in each well of a 384-well plate and serum starved overnight in a tissue culture incubator (5% CO2, 37° C.). […] 10 μL of […] streptavidin donor beads (Perkin Elmer) were added to each well, blocked from light with solid black adhesive and shaken at 300 rpm at room temperature for 2 hours. Fluorescence signal was obtained on Envision (Perkin Elmer) by AlphaScreen 384 well HTS protocol.
In general terms: Alpha assays give light when donor and acceptor beads are brought close together.

The target in data set [2] is T2, wt KIT kinase (Homo sapiens, UniProt P10721).
T2 construct: made in house; host or cells: E. coli derived from BL21, infected with T7 phage
Put plainly: Wild-type KIT Kd determination (phage-tagged kinase competition binding, qPCR). How it is done: Kd Determinations. For most assays, including wt KIT kinase, kinase-tagged T7 phage strains were prepared in an E. coli host derived from the BL21 strain. E. coli were grown to log-phase and infected with T7 phage and incubated with shaking at 32° C. until lysis. […] The liganded beads were blocked with excess biotin and washed with blocking buffer (SeaBlock (Pierce), 1% BSA, 0.05% Tween 20, 1 mM DTT) to remove unbound ligand and to reduce non-specific binding. […] Test compounds were prepared as 111×stocks in 100% DMSO. Kds were determined using an 11-point 3-fold compound dilution series with three DMSO control points. […] The compounds were then diluted directly into the assays such that the final concentration of DMSO was 0.9%. All reactions were performed in polypropylene 384-well plate. Each was a final volume of 0.02 ml. […] The kinase concentration in the eluates was measured by qPCR.
Binding Constants (Kds). Binding constants (Kds) were calculated with a standard dose-response curve using the Hill equation: Response=Background+Signal−Background 1+(KdHill Slope/DoseHill Slope). The Hill Slope was set to −1. Curves were fitted using a non-linear least square fit with the Levenberg-Marquardt algorithm.

Data set [3] addresses KIT D816V (Homo sapiens, UniProt P10721, D816V). Nature of the data set: KIT D816V biochemical enzymatic activity assay (EZReader 2 mobility shift). The settings on record: ATP at APPKM (20 μM), 60 minutes. From the text:
(§1) PDGFRα and KIT enzymatic activity was monitored using the Perkin Elmer electrophoretic mobility shift technology platform, the EZReader 2.
(§2) Within the linear, steady-state phase of the kinase enzymatic reaction, the mixed pool of phosphorylated (product) and non-phosphorylated (substrate) peptides was passed through the microfluidic system of the PerkinElmer EZ Reader 2, under an applied electric potential difference. The presence of the phosphate group on the product peptide provided a difference in mass and charge between that of the substrate peptide, resulting in a separation of the substrate and product pools in the sample (Perrin et al., Expert Opin Drug Discovery 2010, Jan. 5(1):51-63).
(§3) As the product and substrate peptide mixture passes the lasers within the instrument, these pools are detected (λex=488 nm, λem=568 nm) and resolved as separate peaks. The ratio between these peaks reflects the activity of the compound at that concentration, in that well, under those conditions.
(§4) All test articles were dissolved in 100% DMSO at a stock concentration of 10 mM. A 100×, 10-point, 4-fold serial dilution of all test compounds was created in 100% DMSO, starting at a relevant concentration, usually 1 mM. A volume of 0.130 μL of each concentration was transferred to the relevant well of a 384-well assay plate (Greiner 781 201) using a TTPLabtech Mosquito nano-liter dispenser. Using the Multidrop, the remaining constituents of the reaction were then added to the 0.130 μL of compound as follows:
The reaction was stopped by the addition of 70 μl of Stop buffer (100 mM HEPES pH 7.5, Brij 35, 35 mM EDTA and 0.2% of Coating Reagent 3, Caliper Lifesciences). The plate was read on a Caliper EZReader 2.

Data set [4] has as its target PDGFRα D842V (Homo sapiens, UniProt P16234, D842V). Put plainly: PDGFRα D842V biochemical enzymatic activity assay (EZReader 2 mobility shift). The settings on record: ATP at APPKM (25 μM), 90 minutes.
Source text: as §1, §2, §3, §4
The reaction was stopped by the addition of 70 μl of Stop buffer (100 mM HEPES pH 7.5, 0.015% Brij 35, 35 mM EDTA and 0.2% of Coating Reagent 3, Caliper Lifesciences). The plate was read on a Caliper EZReader 2.

Data set [5] is described as follows: Brain penetration in rats, brain to plasma ratios after 24 h IV infusion. The settings on record: for Kp uu at 24 h: Sprague-Dawley, brain / plasma, intravenous, 1 mg/kg/hr; for Kp uu at 24 h / Rat Kp: Table 3B; for Rat Kp: methods as for compound 4. It is filed as in vivo, Sprague-Dawley rats. From the text:
To understand the brain penetration, brain to plasma ratios of the compounds were obtained in Sprague-Dawley (SD) rats. In vivo equilibrium distribution between blood and brain in preclinical species such as rats is a commonly used parameter to evaluate brain penetration. Kp,brain is the ratio of concentrations in brain and blood (Cbrain/Cplasma). The compound's passive diffusion characteristics, its affinity for membrane transporters at the blood-brain barrier (BBB), and the relative drug binding affinity differences between the plasma proteins and brain tissue influence the Kp,brain.
The animals received IV infusion of 1 mg/kg/hr of the compound over 24 hours via jugular vein cannulation. At 24 hours, blood was collected via tail vein bleeding or cardiac puncture (under anesthesia) and centrifuged to obtain plasma samples. Brain tissues were collected and homogenized with phosphate-buffered saline (PBS). The concentrations of the compounds were obtained in the plasma and brain homogenates by LC-MS/MS analysis.

The nature of data set [6]: Pharmacokinetics after single intravenous and oral administration in rats. The conditions noted are these: iv 1 mg/kg, Clu=Cl/fu,plasma. The format is in vivo, Sprague-Dawley rats. The procedure:
Assessment of pharmacokinetics following single intravenous and oral administration in rats: 3 Sprague-Dawley rats were employed for each compound for each route of administration (iv or oral). For iv administration, 1 mg/kg (dose volume=5 mL/kg) of each compound was administered by intravenous route via […] injection; whereas for oral route, 2.5 mg/kg (dose volume=5 mL/kg) was administered via oral gavage. Blood samples were obtained via tail vein at predose, 0.083, 0.25, 0.5, 1, 2, 4 and 8 hr. In addition, blood samples were also obtained at 24 hr via cardiac puncture (under anesthesia with Isoflurane) for terminal bleeding. All the blood samples were analyzed for the drug concentrations via LC/MS-MS. Pharmacokinetic parameters such as Cmax, Tmax, AUClast, AUCinf, MRTlast, MRTinf, T1/2, Vss and CL were obtained by non-compartmental analysis (NCA).

Where [7] appears, read: rat, fu,brain from brain slice, read-out: Rat Kp, uu Brain slice.

Each structure is given as a SMILES string. Like-named read-outs stand apart in the source and are kept apart here.

For orientation: Kd means the concentration at which binding is half-saturated. A higher Kd goes with a looser complex.

Sequence of PDGFRα D842V (P16234 24-1089 D842V): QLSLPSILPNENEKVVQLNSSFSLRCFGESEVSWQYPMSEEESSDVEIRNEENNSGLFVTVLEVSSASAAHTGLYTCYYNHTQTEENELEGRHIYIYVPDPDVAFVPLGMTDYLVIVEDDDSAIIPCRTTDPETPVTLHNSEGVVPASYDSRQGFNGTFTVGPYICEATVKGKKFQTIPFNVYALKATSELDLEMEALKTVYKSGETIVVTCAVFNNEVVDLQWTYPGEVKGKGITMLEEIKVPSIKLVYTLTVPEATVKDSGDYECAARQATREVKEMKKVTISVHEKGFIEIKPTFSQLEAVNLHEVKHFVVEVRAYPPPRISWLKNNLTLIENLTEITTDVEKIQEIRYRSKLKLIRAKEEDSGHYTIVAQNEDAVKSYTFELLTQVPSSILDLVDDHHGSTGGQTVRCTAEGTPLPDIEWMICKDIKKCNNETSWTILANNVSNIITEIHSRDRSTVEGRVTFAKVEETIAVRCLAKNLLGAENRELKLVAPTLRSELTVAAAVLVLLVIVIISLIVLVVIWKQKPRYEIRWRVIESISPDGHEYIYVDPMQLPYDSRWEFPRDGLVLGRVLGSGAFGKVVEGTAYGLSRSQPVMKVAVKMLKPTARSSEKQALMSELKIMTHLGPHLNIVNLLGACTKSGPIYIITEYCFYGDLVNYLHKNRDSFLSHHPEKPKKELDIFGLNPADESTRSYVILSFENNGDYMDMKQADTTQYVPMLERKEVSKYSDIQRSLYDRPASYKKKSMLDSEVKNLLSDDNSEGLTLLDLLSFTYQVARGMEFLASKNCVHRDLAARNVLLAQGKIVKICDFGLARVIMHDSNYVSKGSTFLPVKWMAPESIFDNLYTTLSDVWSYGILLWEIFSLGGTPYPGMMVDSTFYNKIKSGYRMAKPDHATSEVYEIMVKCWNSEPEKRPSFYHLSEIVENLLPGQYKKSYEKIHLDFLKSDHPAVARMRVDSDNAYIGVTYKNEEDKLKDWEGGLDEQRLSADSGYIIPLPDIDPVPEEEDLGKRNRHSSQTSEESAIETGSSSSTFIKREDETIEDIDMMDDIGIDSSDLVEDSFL
Sequence of KIT D816V (P10721 26-976 D816V): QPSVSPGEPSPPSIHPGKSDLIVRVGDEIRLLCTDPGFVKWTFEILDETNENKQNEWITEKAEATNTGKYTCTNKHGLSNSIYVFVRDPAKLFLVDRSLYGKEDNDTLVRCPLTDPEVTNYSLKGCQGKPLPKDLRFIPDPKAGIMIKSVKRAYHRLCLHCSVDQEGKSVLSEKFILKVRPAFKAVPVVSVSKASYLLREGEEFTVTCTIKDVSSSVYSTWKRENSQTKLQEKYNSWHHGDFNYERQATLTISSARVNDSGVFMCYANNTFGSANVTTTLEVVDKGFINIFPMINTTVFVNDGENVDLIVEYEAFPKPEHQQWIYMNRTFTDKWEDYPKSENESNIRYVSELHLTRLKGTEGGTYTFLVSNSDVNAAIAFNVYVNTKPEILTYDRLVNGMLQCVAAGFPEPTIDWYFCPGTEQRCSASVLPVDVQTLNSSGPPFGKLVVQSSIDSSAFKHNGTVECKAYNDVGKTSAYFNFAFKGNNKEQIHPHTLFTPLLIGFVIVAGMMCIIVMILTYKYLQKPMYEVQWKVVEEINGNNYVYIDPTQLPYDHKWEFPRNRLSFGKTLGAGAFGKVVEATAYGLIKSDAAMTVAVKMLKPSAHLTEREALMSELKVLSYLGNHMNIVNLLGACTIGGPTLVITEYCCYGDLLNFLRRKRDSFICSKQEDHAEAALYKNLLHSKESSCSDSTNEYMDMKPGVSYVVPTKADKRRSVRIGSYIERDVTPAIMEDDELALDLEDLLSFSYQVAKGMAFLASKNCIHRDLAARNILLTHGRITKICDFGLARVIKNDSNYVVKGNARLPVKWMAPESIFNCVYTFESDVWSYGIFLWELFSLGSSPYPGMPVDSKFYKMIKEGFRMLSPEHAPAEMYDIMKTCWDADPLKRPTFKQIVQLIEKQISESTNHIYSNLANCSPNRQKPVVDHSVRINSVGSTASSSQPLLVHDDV
T1 sequence (P10721 26-976 V560G/D816V): as the sequence (P10721 26-976 D816V) above, with V535G counted along it
T2 sequence (P10721 26-976): as the sequence (P10721 26-976 D816V) above, with V791D counted along it

On to `C[C@](N)(c1ccc(F)cc1)c1cnc(N2CCN(c3ncnn4cc(-c5cnn([C@H]6CC[C@@H]6O)c5)cc34)CC2)nc1` (single isomer, unassigned) [Compound 10], for which the IC50 in data set [1] was less than 4.5 nM; in data set [3], 0.31 to 1 nM; in data set [4], no more than 0.3 nM. For the same compound, the Kd in data set [2] was less than 10 nM. Further, in data set [5] (setting [7]), the Kp uu at 24 h turned out to be 0.07. The “Rat Kp” value in data set [5] stood at 0.18.

Take `C[C@](N)(c1ccc(F)cc1)c1cnc(N2CCN(c3ncnn4cc(-c5cnn([C@@H]6CC[C@H]6O)c5)cc34)CC2)nc1` (single isomer, unassigned) [Compound 11]: the IC50 in data set [1] is less than 4.5 nM; in data set [3] it was no more than 0.3 nM; in data set [4] it was no more than 0.3 nM. Besides, the Kd in data set [2] was less than 10 nM. The Kp uu at 24 h worked out at 0.06 in data set [5] (rat, fu,brain from brain homogenate, read-out: Rat Kp, uu Homogenate) and 0.03 in data set [5] (setting [7]). Moreover, the “Rat Kp” value in data set [5] was 0.13.

With `CCn1cc(-c2cc3c(N4CCN(c5ncc([C@@](C)(N)c6ccc(F)cc6)cn5)CC4)ncnn3c2)cn1` [Comparator A, reference compound], the IC50 in data set [3] and in data set [4] was no more than 0.3 nM each time. The “Unbound concentration, Brain” value in data set [5] (rat, total mean brain concentration x fu,brain (homogenate)) came out at 1.7. In addition, the “Unbound concentration, Plasma” value in data set [5] (rat, total mean plasma concentration x fu,p) stood at 2.02.

Take `CC(C)(O)Cn1cc(-c2cc3c(N4CCN(c5ncc([C@@](C)(N)c6ccc(F)cc6)cn5)CC4)ncnn3c2)cn1` [Compound 1, (S)-1-(4-(4-(4-(5-(1-Amino-1-(4-fluorophenyl)ethyl)pyrimidin-2-yl)piperazin-1-yl)pyrrolo[2,1-f][1,2,4]triazin-6-yl)-1H-pyrazol-1-yl)-2-methylpropan-2-ol]: the IC50 in data set [4] was no more than 0.3 nM.

Take `CC(C)(CO)n1cc(-c2cc3c(N4CCN(c5ncc([C@@](C)(N)c6ccc(F)cc6)cn5)CC4)ncnn3c2)cn1` [Compound 2, (S)-2-(4-(4-(4-(5-(1-amino-1-(4-fluorophenyl)ethyl)pyrimidin-2-yl)piperazin-1-yl)pyrrolo[2,1-f][1,2,4]triazin-6-yl)-1H-pyrazol-1-yl)-2-methylpropan-1-ol]: in data set [4], the IC50 is no more than 0.3 nM.

Turning to `C[C@@H](O)Cn1cc(-c2cc3c(N4CCN(c5ncc([C@@](C)(N)c6ccc(F)cc6)cn5)CC4)ncnn3c2)cn1` [Compound 3], the IC50 in data set [4] is no more than 0.3 nM.

In the case of `C[C@](N)(c1ccc(F)cc1)c1cnc(N2CCN(c3ncnn4cc(-c5cnn(CCO)c5)cc34)CC2)nc1` [Compound 4, (S)-2-(4-(4-(4-(5-(1-Amino-1-(4-fluorophenyl)ethyl)pyrimidin-2-yl)piperazin-1-yl)pyrrolo[2,1-f][1,2,4]triazin-6-yl)-1H-pyrazol-1-yl)ethanol], in data set [4], the IC50 was no more than 0.3 nM. In addition, in data set [6], the “Rat IV PK (Clu) (mL/min/kg), unbound clearance” value is “(582) mL/min/kg”.

`C[C@H](CO)n1cc(-c2cc3c(N4CCN(c5ncc([C@@](C)(N)c6ccc(F)cc6)cn5)CC4)ncnn3c2)cn1` [Compound 5, (R)-2-(4-(4-(4-(5-((S)-1-Amino-1-(4-fluorophenyl)ethyl)pyrimidin-2-yl)piperazin-1-yl)pyrrolo[2,1-f][1,2,4]triazin-6-yl)-1H-pyrazol-1-yl)propan-1-ol]: the IC50 in data set [4] was no more than 0.3 nM.

Turning to `C[C@@H](CO)n1cc(-c2cc3c(N4CCN(c5ncc([C@@](C)(N)c6ccc(F)cc6)cn5)CC4)ncnn3c2)cn1` [Compound 6, (S)-2-(4-(4-(4-(5-((S)-1-amino-1-(4-fluorophenyl)ethyl)pyrimidin-2-yl)piperazin-1-yl)pyrrolo[2,1-f][1,2,4]triazin-6-yl)-1H-pyrazol-1-yl)propan-1-ol], in data set [4], the IC50 was no more than 0.3 nM.

In the case of `C[C@H](O)Cn1cc(-c2cc3c(N4CCN(c5ncc([C@@](C)(N)c6ccc(F)cc6)cn5)CC4)ncnn3c2)cn1` [Compound 7], the IC50 in data set [4] is no more than 0.3 nM.

On to `C[C@](N)(c1ccc(F)cc1)c1cnc(N2CCN(c3ncnn4cc(-c5cnn(CC6(O)CC6)c5)cc34)CC2)nc1` [Compound 8, (S)-1-((4-(4-(4-(5-(1-Amino-1-(4-fluorophenyl)ethyl)pyrimidin-2-yl)piperazin-1-yl)pyrrolo[2,1-f][1,2,4]triazin-6-yl)-1H-pyrazol-1-yl)methyl)cyclopropan-1-ol], for which the IC50 in data set [4] was no more than 0.3 nM.

In the case of `C[C@](N)(c1ccc(F)cc1)c1cnc(N2CCN(c3ncnn4cc(-c5cnn(C6(CO)CC6)c5)cc34)CC2)nc1` [Compound 9, (S)-(1-(4-(4-(4-(5-(1-Amino-1-(4-fluorophenyl)ethyl)pyrimidin-2-yl)piperazin-1-yl)pyrrolo[2,1-f][1,2,4]triazin-6-yl)-1H-pyrazol-1-yl)cyclopropyl)methanol], the IC50 in data set [4] is no more than 0.3 nM.

Values taken from US20230391780A1, “COMPOSITIONS AND METHODS FOR TREATING KIT- AND PDGFRA-MEDIATED DISEASES” (Blueprint Medicines Corporation, priority 2020, published 2023).
